Data set [1] deals with 67 molecular targets including G-protein coupled receptors, ion channel-coupled receptors, transporters, ion channels and enzymes. Briefly: In vitro safety evaluation, whole panel. To be noted: andrographolide at a concentration of 25 μM in the herbal composition. The procedure: To confirm possible adverse effects, extensive in vitro studies covering a broad range of physical function-related 67 molecular targets including G-protein coupled receptors, ion channel-coupled receptors, transporters, ion channels and enzymes, were conducted. […] Interactions found in the primary assay can be indicative of in vivo side effects or safety.

In data set [2] the test system is phytohemagglutinin (PHA)-stimulated whole blood cell. To be noted: cultivated; cited from earlier work.

Each structure is given as a SMILES string.

`C=C1CC[C@@H]2[C@](C)(CO)[C@H](O)CC[C@@]2(C)[C@@H]1C/C=C1/C(=O)OC[C@H]1O` [andrographolide]: in data set [1], the “side-effect in the in vitro safety evaluation” value is “no significant side-effect”. In data set [2], the “formation of TNFα and β2MG” value is listed as “increase”.

The record behind these values is patent US20060263449A1 (Advanced Gene Technology, Corp., priority 2005, published 2006).
